Assay results published in US10316020B2, “Indane derivatives and the use thereof as soluble guanylate cyclase activators” (NOVARTIS AG, priority 2015, dated 2019).
Read-outs that look alike come from different tables or passages of the source.

Legend:
[1] = target: T1, soluble guanylate cyclase (GUCYA3/GUCYB3) overexpressed in CHO cells (Homo sapiens, UniProt Q02108+Q02153); assay: CHO cellular assay (cGMP production, HTRF); type: cell-based
T1 construct: expressed in transfected cells
T1 sequence (Q02108 1-690 partner): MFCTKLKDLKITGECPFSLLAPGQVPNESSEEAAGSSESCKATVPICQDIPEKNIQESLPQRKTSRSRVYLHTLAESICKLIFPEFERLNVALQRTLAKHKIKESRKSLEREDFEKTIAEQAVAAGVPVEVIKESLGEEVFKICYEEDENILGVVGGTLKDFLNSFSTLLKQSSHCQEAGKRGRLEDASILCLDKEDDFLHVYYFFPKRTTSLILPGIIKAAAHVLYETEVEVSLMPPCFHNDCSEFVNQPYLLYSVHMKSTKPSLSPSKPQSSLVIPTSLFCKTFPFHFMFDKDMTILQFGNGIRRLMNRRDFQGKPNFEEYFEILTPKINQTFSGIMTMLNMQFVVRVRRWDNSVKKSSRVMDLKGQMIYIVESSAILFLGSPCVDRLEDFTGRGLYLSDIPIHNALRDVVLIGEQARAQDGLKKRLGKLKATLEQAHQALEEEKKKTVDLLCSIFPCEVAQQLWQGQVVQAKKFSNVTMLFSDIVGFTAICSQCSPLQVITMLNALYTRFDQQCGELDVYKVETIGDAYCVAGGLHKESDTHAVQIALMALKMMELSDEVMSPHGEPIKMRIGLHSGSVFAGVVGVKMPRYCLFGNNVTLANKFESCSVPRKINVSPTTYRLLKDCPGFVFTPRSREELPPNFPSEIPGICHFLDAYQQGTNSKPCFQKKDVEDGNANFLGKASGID
T1 sequence (Q02153 1-619): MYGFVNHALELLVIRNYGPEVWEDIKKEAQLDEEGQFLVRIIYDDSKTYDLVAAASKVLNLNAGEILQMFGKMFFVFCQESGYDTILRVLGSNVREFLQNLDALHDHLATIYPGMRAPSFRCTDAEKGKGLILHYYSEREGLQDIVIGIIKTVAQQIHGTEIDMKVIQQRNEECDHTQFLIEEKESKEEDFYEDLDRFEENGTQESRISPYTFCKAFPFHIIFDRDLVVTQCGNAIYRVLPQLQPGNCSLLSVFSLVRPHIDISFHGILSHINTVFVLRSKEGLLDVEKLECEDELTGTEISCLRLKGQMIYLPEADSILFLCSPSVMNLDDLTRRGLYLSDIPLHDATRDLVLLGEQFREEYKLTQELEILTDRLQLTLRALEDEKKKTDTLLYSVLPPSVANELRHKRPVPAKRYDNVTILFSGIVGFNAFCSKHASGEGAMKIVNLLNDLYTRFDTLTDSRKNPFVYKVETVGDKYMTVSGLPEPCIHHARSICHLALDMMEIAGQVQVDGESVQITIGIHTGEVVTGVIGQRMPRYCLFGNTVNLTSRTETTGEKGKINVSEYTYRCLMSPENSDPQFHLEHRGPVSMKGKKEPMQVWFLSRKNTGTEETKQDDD
Excerpt: Chinese hamster ovary (CHO) cells overexpressing soluble guanylate cyclase were generated to test the effect of sGC activators in a cellular context. Human cDNAs for GUCYA3 (RefSeq: NM_000856.3) and GUCYB3 (RefSeq: NM_000857.1) were amplified by PCR from a HUVEC (Human Umbilical Vein Endothelial Cells) cDNA library and cloned into mammalian expression vectors. CHO K1 cells (ATCC CCL-61) were transfected using Lipofectamine 2000 following manufacturer's instructions and stably expressing clones were identified by antibiotic selection. CHO GUCY clone 8E10 was used for subsequent experiments.
Cells were seeded at a density of 3000 cells/well in white 384-well proxyplates (Perkin Elmer) and incubated overnight, then the medium was removed and cells were washed with assay buffer (HBSS, 0.1% BSA, 1 mM IBMX, 20 uM ODQ). sGC activators were serially diluted in DMSO, then diluted in assay buffer prior to adding to cells (10 ul/well, final DMSO concentration 0.5%). Cells were incubated with compounds for 1 h at room temperature, then assayed for cGMP production using Cisbio cGMP HTRF kit (62GM2PEC) according to manufacturer's instructions.
The EC50s are calculated based on the amount of cGMP interpolated from the standard curve, using a 4-parameter sigmoidal dose-response.
Compounds of invention are active on sGC activation. Data in Table 1 collected using the assay of Biological Example 1.

[2] = Pharmacokinetic clearance in intravenously dosed rats; type: in vivo; conditions: male, Sprague-Dawley, rat, whole blood, iv, 0.5 mg/kg
Procedure: Sprague-Daley rats were administered sGC activators intravenously to assess the systemic clearance rates of the compounds from blood by non-compartmental analysis. Compounds with high clearance rates may be less prone to exert unwanted systemic (non-local) pharmocoligcal effects, which may be a benefical property for a compound intended to be dosed via topical ocular administration with the aim of exerting a pharmacological reponse locally in the eye.
In order to assess the pharmacokinetic parameters, male Sprague-Dawley rats were given 1 mL/Kg of the dosing solution (delineated in the table below) containing a test article (0.5 mg/kg) per kg of body weight via slow intravenous injection into an indwelling jugular vein catheter in a discrete PK study. Alternatively, male Sprague-Dawley rats were given 1 mL/Kg of the dosing solution containing three test articles (0.5 mg/kg each, 1.5 mg/kg total) per kg of body weight via slow intravenous injection into an indwelling jugular vein catheter in a cassette PK study. Diet and water was provided ad libitum without exception. At specified time following a single intravenous bolus injection, approximately 100 μL of whole blood was collected from indwelling catheter in jugular vein. The blood was stored frozen at −20° C. before an LC-MS/MS method was used to quantitate drug levels in the blood. All pharmacokinetic (PK) parameters were derived from concentration-time data by non-compartmental analyses using WinNonlin Phoenix version 6.4 (Certara, St. Louis, Mo.). For the intravenous dose, the concentration of unchanged compound at time 0 was calculated based on a log-linear regression of first two data points to back-extrapolate C(0). The area under the concentration-time curve was calculated using the linear trapezoidal rule.
Data in Table 2 collected using the assay of Biological Example 2 compares compounds from the present invention to other sGC activators previously disclosed PCT/IB2015/055006 filed Jul.

[3] = CHO GUCY clone 8E10, assay buffer with 1 mM IBMX, 20 uM ODQ, 1 h at room temperature, cGMP HTRF, quantification limit 0.0005 μM, read-out: Mean EC50
[4] = CHO cellular assay, as repeated in Table 2, read-out: EC50 from biological Example #1
[5] = i.v. 0.5 mg/kg, Discrete - D (10% propylene glycol, 10% Solutol HS15, PBS)
[6] = i.v. 0.5 mg/kg each, three test articles, Cassette - E (10% propylene glycol, 10% Solutol HS15, PBS)

Row | SMILES | EC50 [1, 3] | EC50 [1, 4] | clearance [2, 5] | also measured
1 | CCc1cc(NC2CCc3cccc(-c4cccc(-n5ncc(C(=O)O)c5CC)n4)c32)ccc1C1=CCN(C(=O)C2CC2)CC1 (single isomer, unassigned; (+)) [(+)-1-(6-(3-((4-(1-(cyclopropanecarbonyl)-1,2,3,6-tetrahydropyridin-4-yl)-3-ethylphenyl)amino)-2,3-dihydro-1H-inden-4-yl)pyridin-2-yl)-5-ethyl-1H-pyrazole-4-carboxylic acid, reference compound] |  | < 0.5 nM | 38 mL/min/kg | 
2 | CCc1cc(OC2CCc3cccc(-c4cccc(-n5ncc(C(=O)O)c5CC)n4)c32)ccc1C1CCN(C(=O)C2CC2)CC1 (single isomer, unassigned; (+)) [(+)-1-(6-(3-(4-(1-(cyclopropanecarbonyl)piperidin-4-yl)-3-ethylphenoxy)-2,3-dihydro-1H-inden-4-yl)pyridin-2-yl)-5-ethyl-1H-pyrazole-4-carboxylic acid] |  | < 0.5 nM |  | clearance [2, 6]: 6.6 mL/min/kg; clearance ([2]; i.v. 0.5 mg/kg, Discrete - G (20% propylene glycol, 50% of 20% Solutol HS15, water)): 14 mL/min/kg
3 | CCc1cc(O[C@H]2CCc3cccc(-c4cccc(-n5ncc(C(=O)O)c5OC)c4)c32)ccc1C1CCN(C(=O)C2CC2)CC1 [Example 5, (+)-(S)-1-(3-(3-(4-(1-(Cyclopropanecarbonyl)piperidin-4-yl)-3-ethylphenoxy)-2,3-dihydro-1H-inden-4-yl)phenyl)-5-methoxy-1H-pyrazole-4-carboxylic acid] | < 0.5 nM | < 0.5 nM | 89 mL/min/kg | 
4 | Cc1cc(C2CCN(C(=O)C3CC3)CC2)ccc1CC1CCc2cccc(-c3cccc(-n4ncc(C(=O)O)c4C)n3)c21 (single isomer, unassigned; (+)) [(+)-1-(6-(3-(4-(1-(cyclopropanecarbonyl)piperidin-4-yl)-2-methylbenzyl)-2,3-dihydro-1H-inden-4-yl)pyridin-2-yl)-5-methyl-1H-pyrazole-4-carboxylic acid] |  | < 0.5 nM | 25.6 mL/min/kg | clearance [2, 6]: 97.2 mL/min/kg
5 | Cc1cc(C2CCN(C(=O)[C@H](C)O)CC2)ccc1NC1CCc2cccc(-c3cccc(-n4ncc(C(=O)O)c4C)n3)c21 (single isomer, unassigned; (+)) [reference compound] |  | < 0.5 nM |  | clearance [2, 6]: 48.3 mL/min/kg
6 | Cc1cc(C2CCN(C(=O)C3CC3)CC2)ccc1NC1CCc2cccc(-c3cccc(-n4ncc(C(=O)O)c4C)c3)c21 (single isomer, unassigned; (+)) [(+)-1-(3-(3-((4-(1-(cyclopropanecarbonyl)piperidin-4-yl)-2-methylphenyl)amino)-2,3-dihydro-1H-inden-4-yl)phenyl)-5-methyl-1H-pyrazole-4-carboxylic acid, reference compound] |  | < 0.5 nM |  | clearance ([2]; i.v. 0.5 mg/kg each, three test articles, Cassette - F (20% propylene glycol, 10% Solutol HS15, PBS)): 24.9 mL/min/kg

More lines, main results first:

Row | EC50 [1, 3] | EC50 [1, 4] | clearance [2, 5] | SMILES | also measured
7 | < 0.6 nM | < 0.6 nM |  | CCc1cc(C[C@H]2CCc3cccc(-c4cccc(-n5ncc(C(=O)O)c5OC)c4)c32)ccc1C1CCN(C(=O)C2CC2)CC1 [Example 1A, (+)-(R)-1-(3-(3-(4-(1-(Cyclopropanecarbonyl)piperidin-4-yl)-3-ethylbenzyl)-2,3-dihydro-1H-inden-4-yl)phenyl)-5-methoxy-1H-pyrazole-4-carboxylic acid] | clearance ([2]; i.v. 0.5 mg/kg, Discrete - A (10% propylene glycol, 1 eq NaOH, 25% of 20% Solutol HS15, PBS)): > 100 mL/min/kg
8 | < 0.5 nM | < 0.5 nM |  | CCc1cc(N[C@H]2CCc3cccc(-c4cccc(-n5ncc(C(=O)O)c5OC)c4)c32)ccc1C1CCN(C(=O)C2CC2)CC1 [Example 3A, (+)-(S)-1-(3-(3-((4-(1-(Cyclopropanecarbonyl)piperidin-4-yl)-3-ethylphenyl)amino)-2,3-dihydro-1H-inden-4-yl)phenyl)-5-methoxy-1H-pyrazole-4-carboxylic acid] | clearance ([2]; i.v. 0.5 mg/kg, Discrete - B (20% PEG 300, 1 eq NaOH, 10% Solutol HS15, PBS)): > 100 mL/min/kg
9 | 7 nM | 7 nM | 98 mL/min/kg | CCc1cc(NC2CCc3cccc(-c4cccc(-n5ncc(C(=O)O)c5N)n4)c32)ccc1C1CCN(C(=O)C2CC2)CC1 (single isomer, unassigned; (+)) [Example 18A, (+)-5-Amino-1-(6-(3-((4-(1-(cyclopropanecarbonyl)piperidin-4-yl)-3-ethylphenyl)amino)-2,3-dihydro-1H-inden-4-yl)pyridin-2-yl)-1H-pyrazole-4-carboxylic acid] | 
10 | < 0.5 nM | < 0.5 nM |  | CCc1cc(NC2CCc3cccc(-c4cccc(-n5ncc(C(=O)O)c5OC)c4)c32)ccc1C1CCN(C(=O)[C@H](C)O)CC1 (single isomer, unassigned; (+)) [Example 4A] | clearance ([2]; i.v. 0.5 mg/kg, Discrete - C (20% PEG 300, 10% Solutol HS15, PBS)): > 100 mL/min/kg
11 | 16 nM |  |  | CCc1cc(C[C@@H]2CCc3cccc(-c4cccc(-n5ncc(C(=O)O)c5OC)c4)c32)ccc1C1CCN(C(=O)C2CC2)CC1 [Example 1B, (−)-(S)-1-(3-(3-(4-(1-(Cyclopropanecarbonyl)piperidin-4-yl)-3-ethylbenzyl)-2,3-dihydro-1H-inden-4-yl)phenyl)-5-methoxy-1H-pyrazole-4-carboxylic acid] | 
